Data as given in patent publication US10808018B2, “Erythropoietin-derived peptides and methods of protecting cells from oxidative damage induced by reactive oxygen species” (SYLUS CO., LTD., priority 2017, dated 2020).
Peptide text beside a SMILES is read from it.

tested on: PC12 cells; experiment: Cell proliferation side effect, MTS assay; assay type: cell-based; details: peptide 1 pM to 0.5 nM, 48 hours, FIG. 4
Procedure: Side effects such as cell proliferation were determined for the three peptides (ML1-L2, ML1-K2, and ML1-R2) prepared in Example 4.
In detail, to determine cell proliferation degree, an MTS assay (CellTiter 96 Aqueous One Solution Cell Proliferation Assay, Promega, Madison, Wis., USA) was performed. […] The initial number of cells (0 hour) and the number of cells after 48 hours were counted. Intracellular soluble formazan produced by cell reduction was determined by recording absorbance of each 96-well plate at a wavelength of 490 nm using a VERSA MAX.

Row | Compound | cell proliferation rate (side effect)
1 | CC(C)C[C@H](NC(=O)CNC(=O)[C@H](CO)NC(=O)[C@@H](NC(=O)[C@H](C)NC(=O)[C@H](CCCCN)NC(=O)[C@H](CC(=O)O)NC(=O)[C@@H](NC(=O)[C@H](Cc1c[nH]cn1)NC(=O)[C@@H](N)CCCNC(=N)N)C(C)C)C(C)C)C(=O)N[C@@H](CCCNC(=N)N)C(=O)N[C@@H](CO)C(=O)N[C@@H](CC(C)C)C(=O)N[C@H](C(=O)N[C@H](C(=O)N[C@@H](CCCNC(=N)N)C(=O)O)[C@@H](C)O)[C@@H](C)O [ML1-R2] (H-RHVDKAVSGLRSLTTR-OH) | no side effect of cell proliferation
2 | CC(C)C[C@H](NC(=O)CNC(=O)[C@H](CO)NC(=O)[C@@H](NC(=O)[C@H](C)NC(=O)[C@H](CCCCN)NC(=O)[C@H](CC(=O)O)NC(=O)[C@@H](NC(=O)[C@H](Cc1c[nH]cn1)NC(=O)[C@@H](N)CCCCN)C(C)C)C(C)C)C(=O)N[C@@H](CCCNC(=N)N)C(=O)N[C@@H](CO)C(=O)N[C@@H](CC(C)C)C(=O)N[C@H](C(=O)N[C@H](C(=O)N[C@@H](CCCCN)C(=O)O)[C@@H](C)O)[C@@H](C)O [ML1-K2] (H-KHVDKAVSGLRSLTTK-OH) | no side effect of cell proliferation
3 | CC(C)C[C@H](NC(=O)[C@@H](NC(=O)[C@@H](NC(=O)[C@H](CC(C)C)NC(=O)[C@H](CO)NC(=O)[C@H](CCCNC(=N)N)NC(=O)[C@H](CC(C)C)NC(=O)CNC(=O)[C@H](CO)NC(=O)[C@@H](NC(=O)[C@H](C)NC(=O)[C@H](CCCCN)NC(=O)[C@H](CC(=O)O)NC(=O)[C@@H](NC(=O)[C@H](Cc1c[nH]cn1)NC(=O)[C@@H](N)CC(C)C)C(C)C)C(C)C)[C@@H](C)O)[C@@H](C)O)C(=O)O [ML1-L2] (H-LHVDKAVSGLRSLTTL-OH) | no side effect of cell proliferation
